From US7314866B2, “Ku-70-derived Bax-suppressing peptides and use thereof for the protection of damaged cells” (Bloodcenter of Wisconsin, Inc., priority 2002, dated 2008) come the findings set out here.

One assay deals with T1, endogenous Bax (Mus musculus, UniProt Q07813).
T1 construct: endogenous in cells; host or cells: Ku70-deficient mouse embryonic fibroblasts, cytosol fraction
The assay is described as follows: Scatchard analysis of the binding of FITC-V5 and Bax. Particulars: Bax-immunodepleted cell lysates. Here is the method: (§1) FIG. 4A: One day following UVC-irradiation or STS-treatment in the absence (UV and STS) or presence of 200 uM negative control (NC) peptide (UV+NC and STS+NC) or V5 peptide (UV+V5 and STS+V5), subcellular fractionation of HeLa cells (10^6 cells) was performed. FoF1 ATP synthase subunit α (F1α) was used to mark the mitochondrial fraction. HM stands for “Heavy Membrane” fraction containing mitochondria. FIG. 4C: cytochrome c release from mitochondria is inhibited by BIP, but not z-VAD-fmk. HeLa cells (10^6 cells) were treated with 200 nM STS in the presence or absence of 200 uM negative control (NC) peptide, V5 peptide, or z-VAD-fmk for 24 hours. Cytochrome c released from mitochondria into cytosol was analyzed by subcellular fractionation followed by Western blot analysis of cytochrome c (cyt c) as well as mitochondrial FoF1-ATP-synthase subunit F1α (F1α) as described in Methods. […] Caspase activity was assessed as described in Methods. […]
Ku70-deficient MEFs (10^7 cells) were lysed in 200 ul of “detergent-free hypotonic buffer” (hypotonic (5 mM NaCl) phosphate buffered saline, pH 7.4) containing protease inhibitors (100 times dilution of Protease Inhibitors Cocktail; Sigma) according to the previously reported method (Hsu and Youle, supra, 1998). […] Kd was calculated by Scatchard plot. […]

The test system of the next assay is Caspase. The assay is described as follows: Caspase activity (DEVD-afc cleavage). It is filed as cell-based, human. Particulars: HeLa cells, 200 nM STS, 200 uM, 24 hours. Here is the method: as §1
HEK293T and HeLa cells were cultured in MEM supplemented with 10% fetal bovine serum (FBS) and Du145 cells and mouse embryonic fibroblasts (MEFs) were in DMEM with 10% FBS. […] Apoptosis in the transfected cells was analyzed as follows: A plasmid encoding enhanced green fluorescent protein (EGFP) (0.5 ug to 10^6 cells) was transfected to all the groups to mark the transfected cells. […]

The next assay has as its system HEK293T cells. The assay is described as follows: Bax-induced apoptosis in HEK293T cells (pcDNA3-Bax transfection, Hoechst staining). Type of assay: cell-based, human. Particulars: added to the culture medium. How it is done: FIG. 1 illustrates that new peptides designed from Ku70 show anti-Bax activity. FIG. 1A: scheme of Ku70 full-length (Ku70 wt), Ku701-577 (Ku70Δ578–609), or Ku70578-609 (Ku70Δ1–577). FIG. 1C: HEK293T cells were transfected with 1.0 ug of pCMV-2B-control vector (Control) or pcDNA3-Bax (Bax) together with 2.0 ug of pCMV-2B-Ku70 wt (Ku70 wt), pCMV-2B-Ku701-577 (Ku701-577), or pCMV-2B-Ku70578-609 (Ku70578-609). All the cells were also co-transfected with 0.5 ug pEGFP for the marking of transfected cells. Apoptosis in the transfected cells was analyzed 24 hours following transfection with Hoechst dye staining of the nucleus as described in Methods. FIG. 1D: HEK293T cells were incubated with 200 uM peptide composed of Ku70578-587 or Ku70596-600 for 4 hours using BioPorter reagent, and then transfected with 1.0 ug of pCDNA3-control vector (Control) or pcDNA3-Bax (Bax). The number of apoptotic cells was determined as described in FIG. 1C. FIG. 1E: HEK293T cells (10^6 cells) were incubated with 200 uM IPMIK (negative control peptide) or VPMLK (V5) and PMLKE (P5) peptides at the indicated concentrations for 1 hour and then incubated cells were transfected with 1.0 ug of pcDNA3-Bax. Also, unincubated cells were transfected with 1.0 ug of pcDNA3-Bax in the presence or absence of 200 uM z-VAD-fmk. The number of apoptotic cells was determined as described in FIG. 1C. FIG. 1F: Summary of the anti-Bax activity and sequence of all peptides used.
HEK293T and HeLa cells were cultured in MEM supplemented with 10% fetal bovine serum (FBS) and Du145 cells and mouse embryonic fibroblasts (MEFs) were in DMEM with 10% FBS. Transfection of the plasmids was performed by SuperFect (Qiagen) according to the manufacturer's manual. Apoptosis was induced by pcDNA3-human Bax (Bax-encoding plasmid)-transfection, Staurosporin (STS)-treatment and UVC-irradiation. The amount of the plasmids, the concentration of STS, and the energy of UVC-irradiation are described in the figure legends. Apoptosis in the transfected cells was analyzed as follows: A plasmid encoding enhanced green fluorescent protein (EGFP) (0.5 ug to 10^6 cells) was transfected to all the groups to mark the transfected cells. After the treatment, cells were stained with Hoechst dye and cells with apoptotic nuclei were counted in GFP-expressing cells under the fluorescent microscope as described by Matsuyama, et al., J. Biol. Chem. 273:30995–31001, 1998. Each point in the figures showing percentages of apoptosis represents the mean +/−SE of three experiments. Caspase activities of cells were measured by detecting the cleavage of fluorogenic substrate of Caspase (DEVD-afc) as previously described.
BioPorter-based peptide delivery was performed 4 hours before apoptosis induction.

A further assay deals with Bax. The assay is described as follows: Co-precipitation of biotin-labeled peptides and endogenous Bax using streptavidin beads. It is filed as binding, human. Particulars: HEK293T lysates, CHAPS buffer.
A further assay concerns the target T2, human Bax (human, UniProt Q07812 1-192).
T2 construct: Protein in cell lysates or cells, not purified; also called endogenous Bax; pcDNA3-Bax (human)
The assay is described as follows: conclusion drawn from the biotin-peptide streptavidin pull-down. Here is the method:
The interaction of BIP and Bax was confirmed by experiments using the system of biotin-labeled BIP and streptavidin beads. Biotin-labeled BIP (biotin-VPMLK; SEQ ID NO: 1), but not negative control peptide (biotin-IPMIK; SEQ ID NO: 5) precipitated Bax from the cell lysates when the streptavidin beads were added to the samples.
Endogenous protein: HEK293T (10^7 cells) were lysed in 200 ul of "CHAPS-based buffer" (150 mM NaCl, 10 mM Hepes, pH 7.4, 1.0% CHAPS) containing protease inhibitors (100 times dilution of Protease Inhibitors Cocktail; Sigma) according to the previously reported method (Hsu and Youle, *J. Biol. Chem.* 273:10777–10783, 1998). After pre-cleaning of 600 ul of the sample with 50 ul of Protein G-Sepharose at 4° C. for 1 hour, immunoprecipitations were performed by incubating 200 ul of lysates with 20 ul of Protein G-Sepharose preabsorbed with 2 ug of anti-Bax polyclonal (BD-Pharmingen) or anti-Ku70 monoclonal antibody (BD-Pharmingen) at 4° C. for 2 hours. In some cases, 2 ug of anti-Bax monoclonal antibody (clone 6A7, BD Pharmingen) was used to detect active form of Bax. […]

A further assay addresses T3, Bak (human, UniProt Q16611 2-211).
T3 sequence (looked up): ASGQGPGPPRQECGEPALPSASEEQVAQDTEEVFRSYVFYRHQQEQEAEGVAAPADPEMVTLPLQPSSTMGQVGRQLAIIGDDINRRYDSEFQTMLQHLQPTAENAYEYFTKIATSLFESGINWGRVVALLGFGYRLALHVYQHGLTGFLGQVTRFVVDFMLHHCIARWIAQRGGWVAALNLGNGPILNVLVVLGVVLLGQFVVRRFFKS
The assay is described as follows: streptavidin bead pull-down from HEK293T CHAPS lysates, Western blot of Bak.

Entries after “also recorded” stand apart in the source; their conditions may differ. Where a SMILES comes first, the peptide text is derived from it. Where no end group is shown, it is not given here. The star is where a group is joined. FITC = O=C1OC2(c3ccc(O)cc3Oc3cc(O)ccc32)c2ccc(NC(=S)*)cc21; Biotin = O=C1N[C@H]2[C@H](CS[C@H]2CCCCC(=O)*)N1; Cbz = O=C(OCc1ccccc1)*; CH2F = FC*

T2 sequence (Q07812 whole entry): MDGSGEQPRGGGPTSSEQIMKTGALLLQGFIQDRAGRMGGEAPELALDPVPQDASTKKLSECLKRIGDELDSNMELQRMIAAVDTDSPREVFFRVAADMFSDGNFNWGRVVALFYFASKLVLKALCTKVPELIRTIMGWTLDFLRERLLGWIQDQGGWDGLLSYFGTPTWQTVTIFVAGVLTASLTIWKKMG
T1 sequence (Q07813 whole entry): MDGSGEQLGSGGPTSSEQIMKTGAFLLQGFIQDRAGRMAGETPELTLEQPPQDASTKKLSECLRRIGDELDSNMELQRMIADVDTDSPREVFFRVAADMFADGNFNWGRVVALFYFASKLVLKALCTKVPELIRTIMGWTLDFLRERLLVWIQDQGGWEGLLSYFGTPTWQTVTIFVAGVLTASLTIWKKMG

With `CSCC[C@H](NC(=O)[C@@H]1CCCN1C(=O)[C@@H](NC(=S)Nc1ccc2c(c1)C(=O)OC21c2ccc(O)cc2Oc2cc(O)ccc21)C(C)C)C(=O)N[C@@H](CC(C)C)C(=O)N[C@@H](CCCCN)C(=O)O` [FITC-labeled BIP] ({FITC}-VPMLK-OH; N-terminus and C-terminus assumed), on endogenous Bax, the “Binding of FITC peptide to cellular components” value is “No significant binding”. Regarding `COC(=O)C[C@H](NC(=O)[C@H](C)NC(=O)[C@@H](NC(=O)OCc1ccccc1)C(C)C)C(=O)CF` [z-VAD-fmk] (Cbz-Val-Ala-Asp(OMe)-CH2F), in the assay on Caspase, the “Suppression of Caspase activation” value is on record as “suppresses STS-induced Caspase activation”. Besides, in the assay with HEK293T cells, the “Suppression of Bax-induced apoptosis in cell culture” value is on record as “showed anti-apoptotic activities”.

As for “IPMIK [mutant of V5 with V and L changed to I, used as negative control peptide, reference compound]”, the “Suppression of Bax-induced apoptosis in cell culture” value with HEK293T cells is reported as “lost its activity to suppress apoptosis; also recorded: did not suppress Bax-mediated cell death”. Further, in the assay on Bax, the “Interaction with Bax (precipitation from cell lysates)” value is on record as “fails to interact with Bax”.

B1: IPMIK (SEQ ID NO: 5) negative control (NC) peptide (peptide)
peptide: IPMIK
notes: also called negative control peptide; mutant peptide IPMIK
As to B1, in the assay with human Bax, the binding result is reported as “no binding”.

B2: Biotin-labeled BIP (biotin-VPMLK; SEQ ID NO: 1) (peptide)
peptide: Biotin-VPMLK
notes: also called biotin-labeled V5 peptide (BIP)
With B2, in the assay with Bak, the binding result is reported as “no binding (tested: 200 uM)”.
